The target in the data set is T1, SFRP-1 (Homo sapiens, UniProt Q8N474).
T1 sequence (Q8N474 32-314): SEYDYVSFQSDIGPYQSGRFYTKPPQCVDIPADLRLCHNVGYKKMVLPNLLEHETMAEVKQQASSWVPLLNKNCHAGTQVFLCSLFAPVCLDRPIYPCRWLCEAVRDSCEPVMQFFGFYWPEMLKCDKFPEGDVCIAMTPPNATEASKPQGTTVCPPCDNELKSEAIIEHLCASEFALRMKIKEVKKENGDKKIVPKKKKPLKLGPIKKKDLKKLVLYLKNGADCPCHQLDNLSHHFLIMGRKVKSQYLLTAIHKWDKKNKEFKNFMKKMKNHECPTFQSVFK
Briefly: Cell-based assay for in vitro measurement of SFRP-1/SARP2 antagonist activity (U2OS cells co-transfected with 16x TCF-tk-Luciferase reporter, Wnt and hSFRP-1).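 On all read-outs here: U2OS cells co-transfected with a TCF-tk luciferase reporter, a Wnt vector, hSFRP-1 or empty vector and CMV-βgal, luciferase luminescence read in cell lysates alongside βgal activity.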 Conditions: for fold induction at 30 µM / fold induction at 15 µM: U2OS.

Setting [1] is: read-out: Fold Induction with SFRP-1, Conc 30 μM, with SFRP-1, fold induction over SFRP-1 control, single dose.
[2] abbreviates: read-out: Fold Induction without SFRP-1, Conc 30 μM, without SFRP-1, single dose.
Setting [3] is: Conc 30 μM, with SFRP-1, fold induction over SFRP-1 control, single dose.
Setting [4] is: read-out: Fold Induction with SFRP-1, Conc 15 μM, with SFRP-1, fold induction over SFRP-1 control, single dose.
Where [5] appears, read: read-out: Fold Induction without SFRP-1, Conc 15 μM, without SFRP-1, single dose.

From patent publication US20060276464A1, “Diarylsulfone sulfonamides and use thereof” (Wyeth, priority 2005, published 2006) come the findings set out here.

Molecules are shown by their SMILES. Where two headings read alike, the source gives them in different places.

As for `Cc1ccc(S(=O)(=O)c2ccccc2)cc1S(=O)(=O)NCCc1ccc2c(c1)OCO2` [Example 43, N-[2-(1,3-benzodioxol-5-yl)ethyl]-2-methyl-5-(phenylsulfonyl)benzenesulfonamide], the fold induction at 30 µM under setting [1] is 3.6 and the fold induction at 30 µM under setting [2] came to 1.
The matching figures for `CCOc1ccc(CCNS(=O)(=O)c2cc(S(=O)(=O)c3ccccc3)ccc2C)cc1` [Example 51, N-[2-(4-ethoxyphenyl)ethyl]-2-methyl-5-(phenylsulfonyl)benzenesulfonamide]: 2.6 and 0.9.
The like results for `Cc1ccc(S(=O)(=O)c2ccccc2)cc1S(=O)(=O)NCCc1cccc(F)c1` [Example 52, N-[2-(3-fluorophenyl)ethyl]-2-methyl-5-(phenylsulfonyl)benzenesulfonamide] were, in that order, 1.4 and 0.7.
`Cc1ccc(S(=O)(=O)c2ccccc2)cc1S(=O)(=O)NCCc1ccccc1F` [Example 53, N-[2-(2-fluorophenyl)ethyl]-2-methyl-5-(phenylsulfonyl)benzenesulfonamide]: the “Fold Induction with SFRP-1” value under setting [3] came out at 1.2 fold. Besides, the “Fold Induction without SFRP-1” value (Conc 30 μM, without SFRP-1, single dose) came out at 0.6 fold. For the same compound, the fold induction at 30 µM came out at 1 under setting [1] and 0.4 under setting [2].
For `CCOc1cc(CCNS(=O)(=O)c2cc(S(=O)(=O)c3ccccc3)ccc2C)ccc1OC` [Example 54, N-[2-(3-ethoxy-4-methoxyphenyl)ethyl]-2-methyl-5-(phenylsulfonyl)benzenesulfonamide], under setting [3], the “Fold Induction with SFRP-1” value was determined as 3.6 fold. Besides, the fold induction at 30 µM under setting [1] came to 3.8 and the fold induction at 30 µM under setting [2] came out at 1.1.
For `CCOc1ccc(CCNS(=O)(=O)c2cc(S(=O)(=O)c3ccccc3)ccc2C)cc1OC` [Example 55, N-[2-(4-ethoxy-3-methoxyphenyl)ethyl]-2-methyl-5-(phenylsulfonyl)benzenesulfonamide], the fold induction at 30 µM under setting [1] is 3.1 and the fold induction at 30 µM under setting [2] came to 0.9.
In the case of `COc1cccc(CCNS(=O)(=O)c2cccc(S(=O)(=O)c3ccccc3)c2)c1` [Example 62, N-[2-(3-methoxyphenyl)ethyl]-3-(phenylsulfonyl)benzenesulfonamide], the fold induction at 15 µM is 1.2 under setting [4] and 1.1 under setting [5].
The matching figures for `CCOc1ccc(CCNS(=O)(=O)c2cccc(S(=O)(=O)c3ccccc3)c2)cc1` [Example 80, N-[2-(4-ethoxyphenyl)ethyl]-3-(phenylsulfonyl)benzenesulfonamide]: 1 and 0.7.
For the compound `O=S(=O)(NCCc1cccc(F)c1)c1cccc(S(=O)(=O)c2ccccc2)c1` [Example 81, N-[2-(3-fluorophenyl)ethyl]-3-(phenylsulfonyl)benzenesulfonamide], the fold induction at 15 µM is, setting by setting: under setting [4], 1; under setting [5], 0.9.
For the compound `O=S(=O)(NCCc1ccccc1F)c1cccc(S(=O)(=O)c2ccccc2)c1` [Example 82, N-[2-(2-fluorophenyl)ethyl]-3-(phenylsulfonyl)benzenesulfonamide], the fold induction at 15 µM came to 1.2 under setting [4] and 1 under setting [5].
The matching figures for `CCOc1cc(CCNS(=O)(=O)c2cccc(S(=O)(=O)c3ccccc3)c2)ccc1OC` [Example 83, N-[2-(3-ethoxy-4-methoxyphenyl)ethyl]-3-(phenylsulfonyl)benzenesulfonamide]: 1.3 and 1.2.
On to `Cc1ccc(S(=O)(=O)c2ccc(Cl)cc2)cc1S(=O)(=O)NCCc1ccccc1Cl` [Example 89, N-[2-(2-chlorophenyl)ethyl]-5-[(4-chlorophenyl)sulfonyl]-2-methylbenzenesulfonamide], for which the fold induction at 30 µM stood at 1.8 under setting [1] and 0.5 under setting [2].
The like results for `COc1ccc(CCNS(=O)(=O)c2cc(S(=O)(=O)c3ccc(Cl)cc3)ccc2C)cc1OC` [Example 92, 5-[(4-chlorophenyl)sulfonyl]-N-[2-(3,4-dimethoxyphenyl)ethyl]-2-methylbenzenesulfonamide] were, in that order, 1 and 0.4.
The matching figures for `Cc1ccc(S(=O)(=O)c2ccc(C)c(S(=O)(=O)NCCc3ccccc3)c2)cc1` [Example 116, 2-methyl-5-[(4-methylphenyl)sulfonyl]-N-(2-phenylethyl)benzenesulfonamide]: 0.9 and 0.4.
The matching figures for `Cc1ccc(S(=O)(=O)c2ccc(C)c(S(=O)(=O)NCCc3ccccc3Cl)c2)cc1` [Example 117, N-[2-(2-chlorophenyl)ethyl]-2-methyl-5-[(4-methylphenyl)sulfonyl]benzenesulfonamide]: 1 and 0.5.
Regarding `COc1ccccc1CCNS(=O)(=O)c1cc(S(=O)(=O)c2ccc(C)cc2)ccc1C` [Example 118, N-[2-(2-methoxyphenyl)ethyl]-2-methyl-5-[(4-methylphenyl)sulfonyl]benzenesulfonamide], the fold induction at 30 µM runs as follows: under setting [1], 1.3; under setting [2], 0.5.
The matching figures for `COc1cccc(CCNS(=O)(=O)c2cc(S(=O)(=O)c3ccc(C)cc3)ccc2C)c1` [Example 119, N-[2-(3-methoxyphenyl)ethyl]-2-methyl-5-[(4-methylphenyl)sulfonyl]benzenesulfonamide]: 0.2 and 0.3.
The like results for `COc1ccc(CCNS(=O)(=O)c2cc(S(=O)(=O)c3ccc(C)cc3)ccc2C)cc1OC` [Example 120, N-[2-(3,4-dimethoxyphenyl)ethyl]-2-methyl-5-[(4-methylphenyl)sulfonyl]benzenesulfonamide] were, in that order, 1.2 and 0.5.
As for `Cc1ccc(S(=O)(=O)c2ccc(C)c(S(=O)(=O)NCCc3ccccc3F)c2)cc1` [Example 138, N-[2-(2-fluorophenyl)ethyl]-2-methyl-5-[(4-methylphenyl)sulfonyl]benzenesulfonamide], the fold induction at 15 µM is, setting by setting: under setting [4], 2.7; under setting [5], 0.9. Moreover, the fold induction at 30 µM reads like this: under setting [1], 1.1; under setting [2], 0.5.
With `CCc1ccc(S(=O)(=O)c2ccccc2)cc1S(=O)(=O)NCCc1ccccc1` [Example 141, 2-ethyl-N-(2-phenylethyl)-5-(phenylsulfonyl)benzenesulfonamide], the fold induction at 15 µM reads like this: under setting [4], 3.3; under setting [5], 1.
The like results for `CCc1ccc(S(=O)(=O)c2ccccc2)cc1S(=O)(=O)NCCc1ccccc1OC` [Example 142, 2-ethyl-N-[2-(2-methoxyphenyl)ethyl]-5-(phenylsulfonyl)benzenesulfonamide] were, in that order, 3.2 and 1.3.
The matching figures for `CCc1ccc(S(=O)(=O)c2ccccc2)cc1S(=O)(=O)NCCc1cccc(OC)c1` [Example 143, 2-ethyl-N-[2-(3-methoxyphenyl)ethyl]-5-(phenylsulfonyl)benzenesulfonamide]: 3.3 and 0.7.
The matching figures for `CCc1ccc(S(=O)(=O)c2ccccc2)cc1S(=O)(=O)NCCc1ccc(OC)c(OC)c1` [Example 144, N-[2-(3,4-dimethoxyphenyl)ethyl]-2-ethyl-5-(phenylsulfonyl)benzenesulfonamide]: 3 and 1.1.
As to `CCc1ccc(S(=O)(=O)c2ccccc2)cc1S(=O)(=O)NCCc1ccc(S(N)(=O)=O)cc1` [Example 145, N-{2-[4-(aminosulfonyl)phenyl]ethyl}-2-ethyl-5-(phenylsulfonyl)benzenesulfonamide], the fold induction at 15 µM is 2.2 under setting [4] and 1.2 under setting [5].
The matching figures for `CCc1ccc(S(=O)(=O)c2ccccc2)cc1S(=O)(=O)NCCc1cccc(F)c1` [Example 146, 2-ethyl-N-[2-(3-fluorophenyl)ethyl]-5-(phenylsulfonyl)benzenesulfonamide]: 2.1 and 1.3.
The like results for `CCc1ccc(S(=O)(=O)c2ccccc2)cc1S(=O)(=O)NCCc1ccccc1F` [Example 147, 2-ethyl-N-[2-(2-fluorophenyl)ethyl]-5-(phenylsulfonyl)benzenesulfonamide] were, in that order, 3.2 and 1.
With `CCOc1cc(CCNS(=O)(=O)c2cc(S(=O)(=O)c3ccccc3)ccc2CC)ccc1OC` [Example 148, N-[2-(3-ethoxy-4-methoxyphenyl)ethyl]-2-ethyl-5-(phenylsulfonyl)benzenesulfonamide], the fold induction at 15 µM amounted to 2.8 under setting [4] and 1.1 under setting [5].
The matching figures for `CCOc1ccc(CCNS(=O)(=O)c2cc(S(=O)(=O)c3ccccc3)ccc2CC)cc1OC` [Example 149, N-[2-(4-ethoxy-3-methoxyphenyl)ethyl]-2-ethyl-5-(phenylsulfonyl)benzenesulfonamide]: 3.1 and 1.1.
The matching figures for `COc1ccc(S(=O)(=O)c2ccccc2)cc1S(=O)(=O)NCCc1ccccc1` [Example 150, 2-methoxy-N-(2-phenylethyl)-5-(phenylsulfonyl)benzenesulfonamide]: 1.5 and 1.2.
